Like-named read-outs stand apart in the source and are kept apart here.
What was measured:
[1] = system: C. neoformans (ATCC 208821); assay: CO-ADD antifungal assay, growth inhibition (resazurin, OD600-570); type: cell-based, Cryptococcus neoformans; settings: up to 32 μg/mL; for MIC C. neoformans: predicted or measured MIC, ≥75% growth inhibition, 36 h
Procedure: (§1) The compounds were used as received by the CO-ADD. For the screenings, most compounds were dissolved to a stock concentration of 10 mg/mL in DMSO. K2[Ti(Citrate)3], Na3Citrate, and K2[TiO(Oxalate)2] were dissolved in warm water. [Cu(Deferasirox)(H2O)]2 was dissolved in pyridine after its solubility was determined to be excellent in pyridine due to coordination of the solvent to the metal producing [Cu(Deferasirox)(pyridine)]2 in situ. […] Each sample concentration was prepared in 384-well plates, non-binding surface plate (NBS; Corning 3640) for each bacterial/fungal strain, tissue-culture treated (TC-treated; Corning 3712/3764), black for mammalian cell types and polypropylene 384-well (PP; […] All sample preparation was conducted using liquid handling robots. For the fungal assays, the fungi (C. albicans (ATCC 90028) and C. neoformans) (ATCC 208821) were used. Both fungi (yeast) strains were cultured for 3 days on Yeast Extract-Peptone Dextrose (YPD; Becton Dickinson 242720, Thermo Fisher Scientific, Waltham, MA, USA) agar at 30 °C. A yeast suspension of 1 × 10^6 to 5 × 10^6 CFU/mL (as determined by OD530) was prepared from five colonies from the agar plates, subsequently diluted with Yeast Nitrogen Base media (YNB; Becton Dickinson 233520, Thermo Fisher Scientific, Waltham, MA, USA), and added to each well of the compound-containing plates (384-well plates, NBS; Corning CLS3640) giving a final cell density of 2.5 × 10^3 CFU/mL and a total volume of 50 μL. Plates were covered and incubated at 35 °C for 36 h without shaking. […] Sigma R7017) and incubation at 35 °C for 2 h, using media-only as a negative control and fungi without inhibitors as a positive control. […] Fluconazole (Sigma F8929) was used as an internal control on each plate for both strains.

[2] = system: S. aureus MRSA (ATCC 43300); assay: CO-ADD antibacterial assay, growth inhibition (OD600); type: cell-based, Staphylococcus aureus; settings: for MIC S. aureus (MRSA): predicted or measured MIC, lowest concentration with ≥75% growth inhibition, 0.25-32 μg/mL, 18 h; for Dmax S. aureus (MRSA), maximum % inhibition: up to 32 μg/mL
Procedure: (§2) Dry compounds ranging from 1–2 mg were weighed into properly labeled Eppendorf tubes and sealed with parafilm. The compounds were used as received by the CO-ADD. For the screenings, most compounds were dissolved to a stock concentration of 10 mg/mL in DMSO. K2[Ti(Citrate)3], Na3Citrate, and K2[TiO(Oxalate)2] were dissolved in warm water. […] Samples were diluted in water to a final testing concentration of 32 µg/mL while keeping the final co-solvent concentration to a maximum of 0.5%. Where applicable, compounds were serially diluted 1:2 fold eight times. Each sample concentration was prepared in 384-well plates, non-binding surface plate (NBS; Corning 3640) for each bacterial/fungal strain, tissue-culture treated (TC-treated; Corning 3712/3764), black for mammalian cell types and polypropylene 384-well (PP; Corning 3657) for hemolysis assays, all in duplicate (n = 2), and keeping the final DMSO concentration to a maximum of 0.5%. All sample preparation was conducted using liquid handling robots.
(§3) For the bacterial assays, four Gram-negative bacteria (E. coli (ATCC 25922, Manassas, VA, USA); K. pneumoniae (ATCC 700603), A. baumannii; (ATCC 19606), and P. aeruginosa (ATCC 27853) and the Gram-positive bacteria (S. aureus MRSA (ATCC 43300) were used. Each strain was cultured in cation-adjusted Mueller Hinton broth (CAMHB; Bacto Laboratories 212322, Mount Pritchard, Australia) at 37 °C overnight. A sample of each culture was then diluted 40-fold in fresh CAMHB and incubated at 37 °C for 1.5–3 h. The resultant mid-log phase cultures were diluted with CAMHB (CFU/mL measured by OD600), then added to each well of the compound-containing plates (384-well non-binding surface (NBS) plates; Corning CLS3640, Millipore Sigma, Burlington, MA, USA), giving a cell density of 5 × 10^5 CFU/mL and a total volume of 50 µL. Plates were covered and incubated at 37 °C for 18 h without shaking. Inhibition of bacterial growth was determined by measuring absorbance at 600 nm (OD600) with a Tecan M1000 Pro monochromator plate reader, using media-only as negative control and bacteria without inhibitors as a positive control. […] Colistin sulfate (Sigma C4461) and vancomycin HCl (Sigma 861987) were used as internal controls on each plate for Gram-negative and Gram-positive bacteria, respectively.

E. coli (ATCC 25922) = assay: as above; type: cell-based, Escherichia coli; settings: up to 32 μg/mL; for MIC E. coli: predicted or measured MIC, ≥75% growth inhibition
Procedure: as §2, §3

[3] = system: HEK293 ATCC CRL-1573 human embryonic kidney cells; assay: CO-ADD cytotoxicity assay (resazurin); type: cell-based; settings: all concentrations examined (0.25-32 μg/mL), 20 h; CC50 could not be measured
Procedure: The compounds were used as received by the CO-ADD. For the screenings, most compounds were dissolved to a stock concentration of 10 mg/mL in DMSO. K2[Ti(Citrate)3], Na3Citrate, and K2[TiO(Oxalate)2] were dissolved in warm water. [Cu(Deferasirox)(H2O)]2 was dissolved in pyridine after its solubility was determined to be excellent in pyridine due to coordination of the solvent to the metal producing [Cu(Deferasirox)(pyridine)]2 in situ. […] Each sample concentration was prepared in 384-well plates, non-binding surface plate (NBS; Corning 3640) for each bacterial/fungal strain, tissue-culture treated (TC-treated; Corning 3712/3764), black for mammalian cell types and polypropylene 384-well (PP; […] All sample preparation was conducted using liquid handling robots. HEK293 ATCC CRL-1573 human embryonic kidney cells were counted manually in a Neubauer hemocytometer and added to compound-containing plates (384-well plates, tissue culture-treated (TC); […] Life Technologies 11995-073) with 10% FBS (GE SH30084.03).

[4] = system: K. pneumoniae (ATCC 700603); assay: CO-ADD antibacterial assay, growth inhibition (OD600); type: cell-based, Klebsiella pneumoniae; settings: up to 32 μg/mL; for MIC K. pneumoniae: predicted or measured MIC, ≥75% growth inhibition
Procedure: as §2, §3

[5] = system: A. baumannii (ATCC 19606); assay: as above; type: cell-based, Acinetobacter baumannii; settings: up to 32 μg/mL; for MIC A. baumannii: predicted or measured MIC, ≥75% growth inhibition
Procedure: as §2, §3

[6] = system: P. aeruginosa (ATCC 27853); assay: as above; type: cell-based, Pseudomonas aeruginosa; settings: up to 32 μg/mL; for MIC P. aeruginosa: predicted or measured MIC, ≥75% growth inhibition
Procedure: as §2, §3

C. albicans (ATCC 90028) = assay: CO-ADD antifungal assay, growth inhibition (OD630); type: cell-based, Candida albicans; settings: up to 32 μg/mL; for MIC C. albicans: predicted or measured MIC, ≥75% growth inhibition, 36 h
Procedure: as §1

MRC-5 cells [7] = settings: cited from earlier work
[8] = cited from earlier work
[9] = Aqueous solution stability, ligand exchange lability and solubility; settings: water / aqueous buffer
MRC-5 cells [10] = assay: MRC-5 cell viability, dose-response treatment, MTT assay; type: cell-based, human; settings: pH 7.4
Procedure: A thawed stock of MRC-5 cells was washed with 1X PBS and resuspended in phenol red DMEM media (supplemented with 10% FBS and 1% of penicillin-streptomycin) and then seeded in a 100 mm × 20 mm (complete, O.D. x H) petri dish and grown in a 5% (v/v) CO2 humidified atmosphere at 37 °C. At least three passages were performed to ensure the integrity of the cells. After this point, cells were collected, thoroughly washed with 1X PBS, and then resuspended in phenol red-free DMEM (supplemented with 10% FBS, 1% Streptomycin/Penicillin, and 2.4 mM L-glutamine) at a 2.0 × 10^5 cells/mL concentration. Approximately 100 µL of the cell solution was seeded into wells of several 96-well plates to begin the MTT assay, which was performed in the 5% (v/v) CO2 humidified atmosphere at 37 °C. At least one lane of wells in each plate was supplied media without cells as a control. […] Most of the compounds were dissolved in 1X PBS buffer at pH 7.4. […] Titanocene dichloride was prepared as a fresh stock solution in DMSO and then diluted in 0.1 M NaCl (aq) instead of 1X PBS (to minimize hydrolysis induced precipitation) to the desired concentration while maintaining a constant 1% (v/v) DMSO background (0.5% DMSO after mixing with the well media). A control of cells treated with media containing 1% (v/v) DMSO was included in the study. The titanocene solutions were used within an hour of preparation in the final cell solution. […] At 3 h before a total of 72 h of incubation with the compounds, the cells were treated with 25 µL of 9 mg/mL MTT prepared in 1X PBS and sterile-filtered. Upon completion of the three hours, 50 µL of 10% (w/v) SDS (prepared in 0.1 M Tris buffer at pH 11) was added to solubilize the purple formazan product crystals and left overnight in the incubator. Control wells in the plates consisted of: (1) Untreated cells + MTT as the measure of 100% viable cell growth in the media and (2) Media with no cells + MTT as the measure of zero cells in the media. Two sets of compounds could be tested per plate. The plates were read at the wavelength of 570 nm (absorbance of the formazan product at pH 10.0) and 800 nm (background control) using a Tecan plate reader. The absorbance of all wells was compared to the absorbance of the untreated cells with the MTT set as the 100% viable cell standard and the absorbance of the zero cell control set as the 0% viable cell standard. […] Nonlinear regression in Origin 8.5 was utilized to fit the growth curves using the pharmacology dose–response equation to determine the half-maximal inhibitory concentration (IC50) and the corresponding standard deviation. All samples were tested six times.

[11] = system: hemolytic and nonhemolytic S. aureus cultures; parameters: method as in doi:10.2298/abs141203061g; settings: cited from earlier work
[12] = system: total intestinal bacterial count; parameters: method as in PMID 11762532; settings: white mice, supplied in bread; cited from earlier work

SMILES | MIC C. neoformans [1] | Dmax C. neoformans, maximum % inhibition [1] | MIC S. aureus (MRSA) [2] | Dmax S. aureus (MRSA), maximum % inhibition [2] | MIC E. coli (E. coli (ATCC 25922)) | Dmax E. coli, maximum % inhibition (E. coli (ATCC 25922)) | MIC K. pneumoniae [4] | Dmax K. pneumoniae, maximum % inhibition [4] | MIC A. baumannii [5] | Dmax A. baumannii, maximum % inhibition [5] | MIC P. aeruginosa [6] | Dmax P. aeruginosa, maximum % inhibition [6] | MIC C. albicans (C. albicans (ATCC 90028)) | Dmax C. albicans, maximum % inhibition (C. albicans (ATCC 90028)) | also measured
O=C1CN2CCN3CC(=O)[O][Ti]([O]1)([O]c1ccccc1C2)[O]c1ccccc1C3 [Compound 11, Ti(HBED)] | >32 µg/mL | −18.86% | >32 µg/mL | 61.46% | >32 µg/mL | 48.02% | >32 µg/mL | 56.3% | >32 µg/mL | 68.73% | >32 µg/mL | 72.48% | >32 µg/mL | 10.43% | antiproliferative effect against HEK293 (in words) [3]: inactive; IC50 ± SD (MRC-5 cells [7]): 18.5 ± 1.9 µg/mL; IC50 (MRC-5 cells [7]; read-out: IC50 ± SD): 42 ± 4.4 µM; solution stability (in words) ([8]; pH 4): highly stable in solution
O=C1[O][Ti-2]23([O]C(=O)c4ccccc4[O]2)([O]C(=O)c2ccccc2[O]3)[O]c2ccccc21.[Na+].[Na+] [Compound 12, Na2[Ti(Salicylate)3]] | >32 µg/mL | −5.2% | >32 µg/mL | 3.66% | >32 µg/mL | 2.6% | >32 µg/mL | 12.46% | >32 µg/mL | 9.4% | >32 µg/mL | 9.57% | >32 µg/mL | 49.3% | solubility (in words) [9]: limited solubility in water; IC50 ± SD (µg/mL), relative IC50 (MRC-5 cells [10]): 5.14 ± 0.92 µg/mL; IC50 (MRC-5 cells [10]; read-out: IC50 ± SD (µM), relative IC50): 8.6 ± 1.54 µM
O=C([O-])CC1(CC(=O)[O-])[O][Ti-2]23([O]C1=O)([O]C(=O)C(CC(=O)[O-])(CC(=O)[O-])[O]2)[O]C(=O)C(CC(=O)[O-])(CC(=O)[O-])[O]3 [Ti(citrate)3^8−] |  |  |  |  |  |  |  |  |  |  |  |  |  |  | biofilm formation (in words) ([11]; all concentrations tested (0.5 to 50 mM)): significantly activated biofilm formation; concentration with significant inhibition of growth rate ([11]; only the early phase of the bacterial growth cycle): 50 mM; ligand exchange lability (in words) [8]: ligand exchange labile
O=C(O)C(=O)O.[O]=[Ti] [titanyl oxalate] |  |  |  |  |  |  |  |  |  |  |  |  |  |  | decrease in the total intestinal bacterial count [12]: 50%

Reference: publication PMC8868518, “Exploring Titanium(IV) Complexes as Potential Antimicrobial Compounds” (Antibiotics, 2022)
